Patent US12116636B2, “Methods for evaluating tumor cell spheroids using 3D microfluidic cell culture device” (Dana-Farber Cancer Institute, Inc., priority 2017, dated 2024)

Test system: PDOTS
Assay: Bead-based cytokine profiling of PDOTS conditioned media
Assay type: cell-based, human
Experimental: Fresh tumor specimens (murine and human patients) were received in media (DMEM) on ice and minced in a 10 cm dish (on ice) using sterile forceps and scalpel. Minced tumor was resuspended in DMEM (4.5 mM glucose, […] sodium pyruvate, 1:100 penicillin-streptomycin) (Coming CellGro, Manassas, VA)+10% FBS (Gemini Bio-Products, West Sacramento, CA), 100 U/mL collagenase type IV (Life Technologies, Carlsbad, CA), and 15 mM HEPES (Life Technologies, Carlsbad, CA), except for CT26 tumors that were prepared in RPMI. Samples were pelleted and resuspended in 10-20 mL media. Red blood cells were removed from visibly bloody samples using RBC Lysis Buffer (Boston Bio-Products, Ashland, MA). […]
Two multiplex assays were performed utilizing a bead-based immunoassay approach, the Bio-Plex Pro™ Human Cytokine 40-plex Assay (Cat #171AK99MR2) and Bio-Plex Pro™ Mouse Cytokine Panel 1, 23-plex (Cat #M60009RDPD) on a Bio-plex 200 system (Cat #171000201). […] Fold changes relative to the MDOT/PDOT control were calculated and plotted as log 2FC. Lower and upper limits of quantitation (LLOQ/ULOQ) were imputed from standard curves for cytokines above or below detection. […]

Substance: ipilimumab [CTLA-4 blockade]
- CCL19/CXCL13 induction in PDOTS (Day 3, relative to untreated control): comparatively minimal

Substance: pembrolizumab [PD-1 blockade]
- PDOTS samples with upregulation of CCL19 and CXCL13 (Day 3 cytokine release, n=28): 23/28
